Biological target: T1, MLLT1 (Homo sapiens, UniProt Q03111)
T1 construct: host or cells: MV4-11
T1 sequence (Q03111 1-559): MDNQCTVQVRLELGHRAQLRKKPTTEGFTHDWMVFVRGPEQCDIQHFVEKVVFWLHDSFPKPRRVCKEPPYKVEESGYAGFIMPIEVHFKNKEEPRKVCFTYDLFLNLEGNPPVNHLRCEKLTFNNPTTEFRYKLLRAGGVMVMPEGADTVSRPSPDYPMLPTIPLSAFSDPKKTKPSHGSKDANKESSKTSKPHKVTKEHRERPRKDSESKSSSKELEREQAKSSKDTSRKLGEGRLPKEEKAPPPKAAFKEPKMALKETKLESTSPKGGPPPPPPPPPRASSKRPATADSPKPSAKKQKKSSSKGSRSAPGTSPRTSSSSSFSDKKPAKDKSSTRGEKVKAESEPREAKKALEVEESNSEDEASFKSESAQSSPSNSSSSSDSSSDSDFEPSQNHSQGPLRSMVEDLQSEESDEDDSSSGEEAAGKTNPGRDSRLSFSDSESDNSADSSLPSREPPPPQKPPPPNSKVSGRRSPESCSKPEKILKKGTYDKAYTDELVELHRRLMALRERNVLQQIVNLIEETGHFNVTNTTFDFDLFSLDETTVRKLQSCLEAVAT
Experiment: MLLT1 degradation assay in MV4-11 cells (JESS chemiluminescent detection), three concentrations, 24 h
Type: cell-based
Conditions: with respect to DMSO control
Method in brief: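 MV4-11 cells treated 24 h at 37° C, 5% CO2 with 1000, 100 and 10 nM compound (0.1% DMSO final). MLLT1 quantified by automated capillary chemiluminescent immunodetection; band peak area expressed as % degradation relative to DMSO control.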

Structure (SMILES)	MLLT1% Degradation @ 0.01 μM	MLLT1% Degradation @ 0.1 μM	MLLT1% Degradation @ 1 μM
CN1CCC[C@@H]1c1cc2cnc(NC(=O)c3ccc(N4CCC(C5CCN(c6cccc7c6C(=O)N(C6CCC(=O)NC6=O)C7=O)CC5)CC4)nc3)cc2[nH]1 (stereo partly drawn) [Example 152, 6-(1′-(2-(2,6-dioxopiperidin-3-yl)-1,3-dioxoisoindolin-4-yl)-[4,4′-bipiperidin]-1-yl)-N-(2-((R)-1-methylpyrrolidin-2-yl)-1H-pyrrolo[3,2-c]pyridin-6-yl)nicotinamide]	D (Category D: D < 25% degradation)	B (Category B: 50% ≤ B < 75% degradation)	A (Category A: A ≥ 75% degradation)
COc1nc(N2CCN(CC3CCN(c4cccc5c4CN(C4CCC(=O)NC4=O)C5=O)CC3)CC2)ccc1C(=O)Nc1cc2[nH]c([C@H]3CCCN3C)cc2cn1 (stereo partly drawn) [Example 126, 6-(4-((1-(2-(2,6-dioxopiperidin-3-yl)-1-oxoisoindolin-4-yl)piperidin-4-yl)methyl)piperazin-1-yl)-2-methoxy-N-(2-((R)-1-methylpyrrolidin-2-yl)-1H-pyrrolo[3,2-c]pyridin-6-yl) nicotinamide]	C (Category C: 25% ≤ C < 50% degradation)	C (Category C: 25% ≤ C < 50% degradation)	C (Category C: 25% ≤ C < 50% degradation)
CN1CCC[C@@H]1c1cc2cnc(NC(=O)c3ccc(CCCCC#Cc4cc5c(cc4F)C(=O)N(C4CCC(=O)NC4=O)C5)cc3F)cc2[nH]1 (stereo partly drawn) [Example 114, 4-(6-(2-(2,6-dioxopiperidin-3-yl)-6-fluoro-1-oxoisoindolin-5-yl)hex-5-yn-1-yl)-2-fluoro-N-(2-((R)-1-methylpyrrolidin-2-yl)-1H-pyrrolo[3,2-c]pyridin-6-yl)benzamide]	D (Category D: D < 25% degradation)	C (Category C: 25% ≤ C < 50% degradation)	C (Category C: 25% ≤ C < 50% degradation)
CN1CCC[C@@H]1c1cc2cnc(NC(=O)c3ccc(N4CCN(CC5CCN(c6cc7c(cc6F)C(=O)N(C6CCC(=O)NC6=O)C7=O)CC5)CC4)cc3)cc2[nH]1 (stereo partly drawn) [Example 180, 4-(4-((1-(2-(2,6-dioxopiperidin-3-yl)-6-fluoro-1,3-dioxoisoindolin-5-yl)piperidin-4-yl)methyl)piperazin-1-yl)-N-(2-((R)-1-methylpyrrolidin-2-yl)-1H-pyrrolo[3,2-c]pyridin-6-yl)benzamide]	C (Category C: 25% ≤ C < 50% degradation)	B (Category B: 50% ≤ B < 75% degradation)	B (Category B: 50% ≤ B < 75% degradation)
CN1CCC[C@@H]1c1cc2cnc(NC(=O)c3cnn(CCCC4CCN(c5cccc6c5C(=O)N(C5CCC(=O)NC5=O)C6=O)CC4)c3)cc2[nH]1 (stereo partly drawn) [Example 38, 1-(3-{1-[2-(2,6-dioxopiperidin-3-yl)-1,3-dioxoisoindol-4-yl]piperidin-4-yl}propyl)-N-{2-[(2R)-1-methylpyrrolidin-2-yl]-1H-pyrrolo[3,2-c]pyridin-6-yl}pyrazole-4-carboxamide]	D (Category D: D < 25% degradation)	D (Category D: D < 25% degradation)	C (Category C: 25% ≤ C < 50% degradation)
CN1CCC[C@@H]1c1cc2cnc(NC(=O)c3cccc(NCC4CCN(c5cccc6c5C(=O)N(C5CCC(=O)NC5=O)C6=O)CC4)c3)cc2[nH]1 (stereo partly drawn) [Example 46, 3-(((1-(2-(2,6-dioxopiperidin-3-yl)-1,3-dioxoisoindolin-4-yl)piperidin-4-yl)methyl)amino)-N-(2-((R)-1-methylpyrrolidin-2-yl)-1H-pyrrolo[3,2-c]pyridin-6-yl)benzamide]	–	B (Category B: 50% ≤ B < 75% degradation)	B (Category B: 50% ≤ B < 75% degradation)
CN1CCC[C@@H]1c1cc2cnc(NC(=O)c3ccc(N4CCN(CC5CCN(c6ccc7c(c6)CN(C6CCC(=O)NC6=O)C7=O)CC5)CC4)cc3)cc2[nH]1 (stereo partly drawn) [Example 222, 4-(4-((1-(2-(2,6-dioxopiperidin-3-yl)-1-oxoisoindolin-5-yl)piperidin-4-yl)methyl)piperazin-1-yl)-N-(2-((R)-1-methylpyrrolidin-2-yl)-1H-pyrrolo[3,2-c]pyridin-6-yl)benzamide]	C (Category C: 25% ≤ C < 50% degradation)	B (Category B: 50% ≤ B < 75% degradation)	B (Category B: 50% ≤ B < 75% degradation)
CN1CCC[C@@H]1c1cc2cnc(NC(=O)c3ccc(OCCC4CCN(c5cccc6c5C(=O)N(C5CCC(=O)NC5=O)C6=O)CC4)cc3F)cc2[nH]1 (stereo partly drawn) [Example 217, 4-(2-(1-(2-(2,6-dioxopiperidin-3-yl)-1,3-dioxoisoindolin-4-yl)piperidin-4-yl)ethoxy)-2-fluoro-N-(2-((R)-1-methylpyrrolidin-2-yl)-1H-pyrrolo[3,2-c]pyridin-6-yl)benzamide]	C (Category C: 25% ≤ C < 50% degradation)	A (Category A: A ≥ 75% degradation)	A (Category A: A ≥ 75% degradation)
CN1CCC[C@@H]1c1cc2cnc(NC(=O)c3ccc(N4CCC(OC5CCN(c6cccc7c6C(=O)N(C6CCC(=O)NC6=O)C7=O)CC5)CC4)cc3)cc2[nH]1 (stereo partly drawn) [Example 136, 4-(4-((1-(2-(2,6-dioxopiperidin-3-yl)-1,3-dioxoisoindolin-4-yl)piperidin-4-yl)oxy)piperidin-1-yl)-N-(2-((R)-1-methylpyrrolidin-2-yl)-1H-pyrrolo[3,2-c]pyridin-6-yl)benzamide]	C (Category C: 25% ≤ C < 50% degradation)	B (Category B: 50% ≤ B < 75% degradation)	B (Category B: 50% ≤ B < 75% degradation)
CN1CCC[C@@H]1c1cc2cnc(NC(=O)c3ccc(CCCC#Cc4cccc5c4C(=O)N(C4CCC(=O)NC4=O)C5=O)cc3)cc2[nH]1 (stereo partly drawn) [Example 110, 4-(5-(2-(2,6-dioxopiperidin-3-yl)-1,3-dioxoisoindolin-4-yl)pent-4-yn-1-yl)-N-(2-((R)-1-methylpyrrolidin-2-yl)-1H-pyrrolo[3,2-c]pyridin-6-yl)benzamide]	C (Category C: 25% ≤ C < 50% degradation)	A (Category A: A ≥ 75% degradation)	A (Category A: A ≥ 75% degradation)
CN1CCC[C@@H]1c1cc2cnc(NC(=O)c3ccc(N4CC(CN5CCN(c6ccc7c(c6)C(=O)N(C6CCC(=O)NC6=O)C7=O)CC5)C4)cc3)cc2[nH]1 (stereo partly drawn) [Example 183, 4-(3-((4-(2-(2,6-dioxopiperidin-3-yl)-1,3-dioxoisoindolin-5-yl)piperazin-1-yl)methyl)azetidin-1-yl)-N-(2-((R)-1-methylpyrrolidin-2-yl)-1H-pyrrolo[3,2-c]pyridin-6-yl)benzamide]	C (Category C: 25% ≤ C < 50% degradation)	B (Category B: 50% ≤ B < 75% degradation)	B (Category B: 50% ≤ B < 75% degradation)
